Laboratory results: BindingDB's records for PubMed 32163814 (n/a, 2020)

What was measured:
Histone deacetylase 1 = Histone deacetylase 1 (Homo sapiens, UniProt Q13547); test: Inhibition of human HDAC1 using fluorogenic as substrate measured after 30 mins by fluorescence based analysis
Histone deacetylase 2 = Histone deacetylase 2 (Homo sapiens, UniProt Q92769); test: Inhibition of human HDAC2 using fluorogenic as substrate measured after 30 mins by fluorescence based analysis
Histone deacetylase 6 [1] = biological target: T1, Histone deacetylase 6 (Homo sapiens, UniProt Q9UBN7); test: Inhibition of human HDAC6 using fluorogenic as substrate measured after 30 mins by fluorescence based analysis
T1 sequence (Q9UBN7 whole entry): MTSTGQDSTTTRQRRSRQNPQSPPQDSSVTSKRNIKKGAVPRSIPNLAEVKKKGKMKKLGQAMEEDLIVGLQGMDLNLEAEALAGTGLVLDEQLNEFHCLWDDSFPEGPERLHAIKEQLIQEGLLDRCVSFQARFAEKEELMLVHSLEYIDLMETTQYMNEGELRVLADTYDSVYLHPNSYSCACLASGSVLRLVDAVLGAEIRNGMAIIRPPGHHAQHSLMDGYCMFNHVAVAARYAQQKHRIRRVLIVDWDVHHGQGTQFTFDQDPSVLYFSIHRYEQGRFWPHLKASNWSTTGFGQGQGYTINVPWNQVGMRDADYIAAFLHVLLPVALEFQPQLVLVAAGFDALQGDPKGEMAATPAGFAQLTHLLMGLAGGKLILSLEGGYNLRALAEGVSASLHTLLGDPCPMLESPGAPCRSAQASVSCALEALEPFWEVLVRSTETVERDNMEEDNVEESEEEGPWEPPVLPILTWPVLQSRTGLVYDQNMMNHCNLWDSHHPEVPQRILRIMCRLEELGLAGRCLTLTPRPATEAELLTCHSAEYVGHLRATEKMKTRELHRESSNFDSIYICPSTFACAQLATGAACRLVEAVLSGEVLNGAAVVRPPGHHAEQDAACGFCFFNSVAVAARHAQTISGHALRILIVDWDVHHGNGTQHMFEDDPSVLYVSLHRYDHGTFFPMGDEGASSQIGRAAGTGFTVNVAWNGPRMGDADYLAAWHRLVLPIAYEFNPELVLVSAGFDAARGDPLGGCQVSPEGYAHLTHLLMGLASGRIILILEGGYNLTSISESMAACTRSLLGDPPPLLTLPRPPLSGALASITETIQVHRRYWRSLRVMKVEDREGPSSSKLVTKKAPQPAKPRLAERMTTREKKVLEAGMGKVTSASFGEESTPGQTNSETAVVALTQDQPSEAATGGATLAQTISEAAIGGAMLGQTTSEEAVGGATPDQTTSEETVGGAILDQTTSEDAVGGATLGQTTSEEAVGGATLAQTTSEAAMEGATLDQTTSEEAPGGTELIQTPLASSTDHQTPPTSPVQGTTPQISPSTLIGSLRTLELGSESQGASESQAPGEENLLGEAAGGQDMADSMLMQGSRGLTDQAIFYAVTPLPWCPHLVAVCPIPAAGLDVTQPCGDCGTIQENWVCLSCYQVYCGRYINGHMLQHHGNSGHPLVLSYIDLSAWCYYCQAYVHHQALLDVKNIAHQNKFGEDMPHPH

Histone deacetylase 3 = Histone deacetylase 3 (Homo sapiens, UniProt O15379); test: Inhibition of human HDAC3 using fluorogenic as substrate measured after 30 mins by fluorescence based analysis
Chain of Histone deacetylase 3 (O15379 whole entry): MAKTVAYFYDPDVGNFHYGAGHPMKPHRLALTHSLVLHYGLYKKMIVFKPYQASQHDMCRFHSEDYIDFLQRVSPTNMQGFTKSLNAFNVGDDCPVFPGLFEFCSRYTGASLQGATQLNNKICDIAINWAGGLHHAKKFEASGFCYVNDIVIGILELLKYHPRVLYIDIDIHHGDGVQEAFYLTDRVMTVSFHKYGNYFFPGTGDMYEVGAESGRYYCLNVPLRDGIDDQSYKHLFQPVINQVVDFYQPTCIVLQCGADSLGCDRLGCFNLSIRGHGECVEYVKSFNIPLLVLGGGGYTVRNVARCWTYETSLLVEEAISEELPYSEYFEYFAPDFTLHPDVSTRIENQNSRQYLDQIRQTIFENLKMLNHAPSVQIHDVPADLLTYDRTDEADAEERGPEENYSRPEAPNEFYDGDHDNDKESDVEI

Histone deacetylase 6 [2] = biological target: T1, Histone deacetylase 6; test: Inhibition of human recombinant HDAC6 using fluorogenic HDAC substrate measured after 20 mins by fluorescence assay

Chain of Histone deacetylase 2 (Q92769 whole entry): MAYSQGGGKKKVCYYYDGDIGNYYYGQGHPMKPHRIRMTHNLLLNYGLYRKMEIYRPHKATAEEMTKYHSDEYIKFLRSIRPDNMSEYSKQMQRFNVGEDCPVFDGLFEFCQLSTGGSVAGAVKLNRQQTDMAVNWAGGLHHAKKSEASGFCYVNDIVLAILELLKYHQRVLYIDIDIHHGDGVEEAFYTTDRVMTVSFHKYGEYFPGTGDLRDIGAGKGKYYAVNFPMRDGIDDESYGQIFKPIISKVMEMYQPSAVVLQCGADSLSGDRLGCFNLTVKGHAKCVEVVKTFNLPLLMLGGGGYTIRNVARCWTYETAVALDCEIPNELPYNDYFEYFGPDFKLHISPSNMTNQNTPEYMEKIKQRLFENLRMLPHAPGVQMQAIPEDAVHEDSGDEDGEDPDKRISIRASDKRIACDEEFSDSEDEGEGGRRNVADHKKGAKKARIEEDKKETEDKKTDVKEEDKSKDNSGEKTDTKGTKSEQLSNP
Chain of Histone deacetylase 1 (Q13547 whole entry): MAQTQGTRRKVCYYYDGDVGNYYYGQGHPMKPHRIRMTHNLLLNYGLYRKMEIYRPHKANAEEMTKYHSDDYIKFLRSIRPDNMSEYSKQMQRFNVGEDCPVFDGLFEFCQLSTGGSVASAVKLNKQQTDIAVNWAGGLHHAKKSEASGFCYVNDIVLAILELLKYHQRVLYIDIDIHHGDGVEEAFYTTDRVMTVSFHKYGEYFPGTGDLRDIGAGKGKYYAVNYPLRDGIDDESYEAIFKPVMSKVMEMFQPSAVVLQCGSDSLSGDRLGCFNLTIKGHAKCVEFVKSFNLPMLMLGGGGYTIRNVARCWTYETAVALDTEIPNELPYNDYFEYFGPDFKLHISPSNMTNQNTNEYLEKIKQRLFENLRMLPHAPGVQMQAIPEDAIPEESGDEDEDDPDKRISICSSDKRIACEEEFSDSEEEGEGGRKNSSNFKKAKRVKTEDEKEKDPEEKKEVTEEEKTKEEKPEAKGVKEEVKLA

Structure (SMILES) | IC50 (Histone deacetylase 1) [nM] | IC50 (Histone deacetylase 2) [nM] | IC50 (Histone deacetylase 6 [1]) [nM] | IC50 (Histone deacetylase 3) [nM] | IC50 (Histone deacetylase 6 [2]) [nM]
O=C(NO)c1ccc(NC(=O)[C@@H](NS(=O)(=O)c2cccc3ccccc23)c2ccccc2)cc1 | 31 | 171 | 295 | 23 | 
COc1ccccc1NC(=O)N[C@H](C(=O)Nc1ccc(C(=O)NO)cc1)c1ccccc1 |  |  |  |  | 294

Results, then the molecule that gave them:

IC50 (Histone deacetylase 1) [nM] | IC50 (Histone deacetylase 2) [nM] | IC50 (Histone deacetylase 6 [1]) [nM] | IC50 (Histone deacetylase 3) [nM] | IC50 (Histone deacetylase 6 [2]) [nM] | Structure (SMILES)
29 | 244 | 376 |  |  | O=C(NO)c1ccc(NC(=O)[C@@H](NC(=O)c2ccc3ccccc3c2)c2ccccc2)cc1
 | 107 | 366 |  |  | CN(C)c1cccc2c(S(=O)(=O)N[C@H](C(=O)Nc3ccc(C(=O)NO)cc3)c3ccccc3)cccc12
 | 89 | 196 |  |  | O=C(NO)c1ccc(NC(=O)[C@@H](NC(=O)c2cccc(Br)c2)c2ccccc2)cc1
